Measurements taken from PMC5485613, “A novel TRPM8 agonist relieves dry eye discomfort” (BMC Ophthalmology, 2017).

System: volunteers
Experiment: C3 eye drop instilled in volunteers, sensation scores
Format: in vivo, human
Description: Eye drops represent ~90% of formulations used for treatment of anterior eye disorders. […] Subjects were asked to rate discomfort, blurring, and coolness sensations, on a scale of 0 (no effect) to 5 (intense effect) at 5, 10, and 15 min after instillation. […] Cooling sensation scores were significant at 5 min (2.6 vs 0.2), but there were not much cooling at 10 (0.8 vs 0.2) or 15 min (0.2 vs 0.2). It appeared as if eye drops are a relatively inefficient method of C3 delivery because the drop splashes in a confined space and the time for the active ingredient to be retained on target receptors is short. Furthermore, the initial period of discomfort is not desirable. To determine if there were other TRPM8 targets on the orbit, we examined the mouse eye with a selective TRPM8-GFP reporter line.

blurring (0.1 mg/mL eye drop, 5, 10 and 15 min): did not cause significant blurring
discomfort (0.1 mg/mL, 50 μL eye drop, 10 or 15 min): not at 10 or 15 min
discomfort score (0-5) (0.1 mg/mL, 50 μL eye drop, 5 min, n = 5): 1.6
SMILES: CCCCCCCCCP(=O)(C(C)C)C(C)C [C3, 1-diisopropylphosphorylnonane]
Cooling sensation score (0-5) (0.1 mg/mL eye drop, 5 min): 2.6
Cooling sensation score (0-5) (0.1 mg/mL eye drop, 10 min): 0.8
Cooling sensation score (0-5) (0.1 mg/mL eye drop, 15 min): 0.2
duration of cooling after eye drop (0.1 mg/mL eye drop, volume printed as 70 μL): ≤ 10 min
